Experimental data taken from ChEMBL document CHEMBL5579829, “Discovery of a potent CDKs/FLT3 PROTAC with enhanced differentiation and proliferation inhibition for AML” (Eur J Med Chem, 2024).

Key:
[1] = target: T1, Protein cereblon/Cyclin-dependent kinase 2 (Homo sapiens, UniProt P24941+Q96SW2); test: Protac activity at CRBN/CDK2 in human HL-60 cells assessed as induction of CDK2 degradation by Western blot analysis; type: cell-based
HL-60 [2] = test: Antiproliferative activity against human HL-60 cells measured after 1 to 3 days by CCK-8 assay; type: functional, cell-based
[3] = target: T1, Protein cereblon/Cyclin-dependent kinase 2; test: Protac activity at CRBN/CDK2 in human HL-60 cells assessed as induction of CDK2 degradation by Western blot analysis relative to control; type: cell-based
[4] = target: Protein cereblon/Cyclin-dependent kinase 6 (Homo sapiens, UniProt Q00534+Q96SW2); test: Protac activity at CRBN/CDK6 in human MDA-MB-231 cells assessed as induction of CDK6 degradation measured after 18 hrs by Western blot analysis; type: cell-based
[5] = target: Protein cereblon/Cyclin-dependent kinase 4 (Homo sapiens, UniProt P11802+Q96SW2); test: Protac activity at CRBN/CDK4 in human MDA-MB-231 cells assessed as induction of CDK4 degradation measured after 18 hrs by Western blot analysis; type: cell-based
HL-60 [6] = test: Induction of pro-differentiation of human HL-60 cells assessed as CD11b expression at 500 nM measured after 5 days by immunostaining-based flow cytometry (reference value: 10.08 to 10.33%); type: functional; conditions: time 5 day
[7] = target: T1, Protein cereblon/Cyclin-dependent kinase 2; test: Protac activity at CRBN/CDK2 in human Kasumi 1 cells assessed as induction of CDK2 degradation measured after 48 hrs by Western blot analysis; type: cell-based
HL-60 [8] = test: Induction of pro-differentiation of human HL-60 cells assessed as CD11b expression at 500 nM measured after 3 days by immunostaining-based flow cytometry (reference value: 8.32 to 10.55%); type: functional; conditions: time 3 day
[9] = target: von Hippel-Lindau disease tumor suppressor/Receptor-type tyrosine-protein kinase FLT3 (Homo sapiens, UniProt P36888+P40337); test: Protac activity at VHL/FLT3-ITD (unknown origin) assessed as induction of FLT3 degradation
[10] = target: Protein cereblon/Cyclin-dependent kinase 9 (Homo sapiens, UniProt P50750+Q96SW2); test: Protac activity at CRBN/CDK9 in human OVCAR-8 cells assessed as induction of CDK9 degradation measured after 6 hrs by Western blot analysis; type: cell-based
[11] = target: T1, Protein cereblon/Cyclin-dependent kinase 2; test: Protac activity at CRBN/CDK2 in human OVCAR-8 cells assessed as induction of CDK2 degradation measured after 6 hrs by Western blot analysis; type: cell-based

Chain of von Hippel-Lindau disease tumor suppressor/Receptor-type tyrosine-protein kinase FLT3 (P36888 whole entry, looked up, change not shown): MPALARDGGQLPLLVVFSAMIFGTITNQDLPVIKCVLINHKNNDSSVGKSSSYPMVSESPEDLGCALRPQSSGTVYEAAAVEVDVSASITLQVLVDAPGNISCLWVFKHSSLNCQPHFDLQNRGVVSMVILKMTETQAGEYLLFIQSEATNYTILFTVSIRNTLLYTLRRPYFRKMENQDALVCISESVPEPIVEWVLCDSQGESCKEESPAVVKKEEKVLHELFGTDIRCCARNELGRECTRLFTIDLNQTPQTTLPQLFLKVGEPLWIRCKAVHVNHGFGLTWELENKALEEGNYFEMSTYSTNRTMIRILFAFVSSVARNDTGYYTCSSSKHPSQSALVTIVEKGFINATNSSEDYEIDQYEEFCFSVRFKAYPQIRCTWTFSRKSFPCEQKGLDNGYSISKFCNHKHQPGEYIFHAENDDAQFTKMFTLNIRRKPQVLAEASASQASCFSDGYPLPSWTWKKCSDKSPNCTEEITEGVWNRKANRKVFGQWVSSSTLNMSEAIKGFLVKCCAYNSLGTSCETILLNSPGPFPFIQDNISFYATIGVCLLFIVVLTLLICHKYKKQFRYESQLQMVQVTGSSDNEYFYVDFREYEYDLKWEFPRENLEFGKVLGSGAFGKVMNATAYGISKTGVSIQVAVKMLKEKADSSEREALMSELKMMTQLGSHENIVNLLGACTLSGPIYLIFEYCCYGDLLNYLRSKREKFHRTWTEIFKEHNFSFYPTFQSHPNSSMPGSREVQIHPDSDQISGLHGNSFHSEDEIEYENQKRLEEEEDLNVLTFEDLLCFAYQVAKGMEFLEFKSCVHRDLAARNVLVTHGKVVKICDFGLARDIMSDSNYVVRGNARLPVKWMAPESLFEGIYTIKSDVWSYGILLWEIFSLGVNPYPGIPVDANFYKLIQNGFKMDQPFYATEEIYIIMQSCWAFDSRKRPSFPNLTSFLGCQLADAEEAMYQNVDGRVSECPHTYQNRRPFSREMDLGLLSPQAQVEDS
Chain of von Hippel-Lindau disease tumor suppressor/Receptor-type tyrosine-protein kinase FLT3 (P40337 whole entry, looked up, change not shown): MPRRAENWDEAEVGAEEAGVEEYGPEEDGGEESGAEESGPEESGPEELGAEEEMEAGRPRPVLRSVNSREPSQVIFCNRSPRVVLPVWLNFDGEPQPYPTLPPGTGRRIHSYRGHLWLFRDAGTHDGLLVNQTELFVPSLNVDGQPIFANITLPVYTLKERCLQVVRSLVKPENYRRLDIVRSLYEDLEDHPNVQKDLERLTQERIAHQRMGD
Chain of Protein cereblon/Cyclin-dependent kinase 6 (Q00534 whole entry): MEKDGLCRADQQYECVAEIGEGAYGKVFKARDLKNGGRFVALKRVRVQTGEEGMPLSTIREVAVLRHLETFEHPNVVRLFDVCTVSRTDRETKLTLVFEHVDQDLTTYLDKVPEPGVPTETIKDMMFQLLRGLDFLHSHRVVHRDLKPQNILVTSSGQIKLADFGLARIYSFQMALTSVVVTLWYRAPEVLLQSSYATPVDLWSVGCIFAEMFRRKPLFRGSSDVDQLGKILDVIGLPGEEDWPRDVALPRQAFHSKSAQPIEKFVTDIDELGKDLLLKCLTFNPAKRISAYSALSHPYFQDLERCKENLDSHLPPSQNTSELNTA
Chain of Protein cereblon/Cyclin-dependent kinase 6 (Q96SW2 whole entry): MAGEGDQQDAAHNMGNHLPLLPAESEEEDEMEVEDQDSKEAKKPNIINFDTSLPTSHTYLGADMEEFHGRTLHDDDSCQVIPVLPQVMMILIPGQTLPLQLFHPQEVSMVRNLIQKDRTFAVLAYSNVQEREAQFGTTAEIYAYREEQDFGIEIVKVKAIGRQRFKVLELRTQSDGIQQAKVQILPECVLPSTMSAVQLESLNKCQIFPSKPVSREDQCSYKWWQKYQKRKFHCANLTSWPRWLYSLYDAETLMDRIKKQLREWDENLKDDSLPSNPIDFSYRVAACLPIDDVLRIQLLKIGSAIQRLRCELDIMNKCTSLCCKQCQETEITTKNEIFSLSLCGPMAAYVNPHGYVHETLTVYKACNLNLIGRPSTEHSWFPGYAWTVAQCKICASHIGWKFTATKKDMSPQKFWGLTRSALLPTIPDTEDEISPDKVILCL
Chain of Protein cereblon/Cyclin-dependent kinase 9 (P50750 whole entry): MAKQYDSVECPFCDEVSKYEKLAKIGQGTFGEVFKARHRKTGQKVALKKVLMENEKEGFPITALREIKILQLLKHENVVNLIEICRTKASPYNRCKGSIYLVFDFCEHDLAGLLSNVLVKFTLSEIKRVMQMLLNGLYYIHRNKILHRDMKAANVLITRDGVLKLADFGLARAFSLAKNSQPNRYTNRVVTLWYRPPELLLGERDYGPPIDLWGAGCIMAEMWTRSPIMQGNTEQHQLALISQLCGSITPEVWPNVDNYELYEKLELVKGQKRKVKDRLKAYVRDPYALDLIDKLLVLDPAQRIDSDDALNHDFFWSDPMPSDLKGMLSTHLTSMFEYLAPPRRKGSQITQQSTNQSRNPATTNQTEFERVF
Chain of Protein cereblon/Cyclin-dependent kinase 9 (Q96SW2 whole entry): as the sequence (Q96SW2 whole entry) above
Chain of Protein cereblon/Cyclin-dependent kinase 4 (P11802 whole entry): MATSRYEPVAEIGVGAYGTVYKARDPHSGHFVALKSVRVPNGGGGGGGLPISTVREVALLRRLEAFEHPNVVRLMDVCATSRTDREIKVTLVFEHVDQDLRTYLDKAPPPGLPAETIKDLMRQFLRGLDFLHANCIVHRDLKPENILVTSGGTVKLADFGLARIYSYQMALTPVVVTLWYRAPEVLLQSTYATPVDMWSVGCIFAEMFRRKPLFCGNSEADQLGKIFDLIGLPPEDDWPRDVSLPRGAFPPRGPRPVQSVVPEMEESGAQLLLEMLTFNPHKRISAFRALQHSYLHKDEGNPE
Chain of Protein cereblon/Cyclin-dependent kinase 4 (Q96SW2 whole entry): as the sequence (Q96SW2 whole entry) above

Row | Compound | DC50 [1] [nM] | IC50 (HL-60 [2]) [nM] | Emax [3] [%] | further results
1 | O=C1CCC(N2C(=O)c3ccc(N4CCC(CN5CCC(CN6CCC(NC(=O)c7n[nH]cc7NC(=O)c7c(Cl)cccc7Cl)CC6)CC5)CC4)cc3C2=O)C(=O)N1 (stereo not drawn) | > 100 |  | 31.8 | 
2 | O=C1CCC(N2C(=O)c3ccc(N4CC(CN5CCC(CN6CCC(NC(=O)c7n[nH]cc7NC(=O)c7c(Cl)cccc7Cl)CC6)CC5)C4)cc3C2=O)C(=O)N1 (stereo not drawn) | > 100 |  | 9.07 | 
3 | O=C1CCC(N2C(=O)c3ccc(N4CC(CN5CCC(N6CCC(NC(=O)c7n[nH]cc7NC(=O)c7c(Cl)cccc7Cl)CC6)CC5)C4)cc3C2=O)C(=O)N1 (stereo not drawn) | > 100 |  | 43.3 | 
4 | CC(=O)c1c(C)c2cnc(Nc3ccc(N4CCN(Cc5cn(CCCCCC(=O)Nc6cccc7c6C(=O)N(C6CCC(=O)NC6=O)C7=O)nn5)CC4)cn3)nc2n(C2CCCC2)c1=O (stereo not drawn) |  |  |  | DC50 [4]: 34.1 nM; DC50 [5]: 12.9 nM
5 | Cc1ccsc1C(=O)n1nc(Nc2ccc(S(=O)(=O)NCCOCc3cn(CCOCCOCCNc4cccc5c4C(=O)N(C4CCC(=O)NC4=O)C5=O)nn3)cc2)nc1N (stereo not drawn) |  | > 1000 |  | Activity (HL-60 [6]): 34.38%; DC50 [7]: 61 nM; Activity (HL-60 [8]): 26.84%
6 | O=C1CCC(N2C(=O)c3ccc(N4CCC(CN5CCC(N6CCC(NC(=O)c7n[nH]cc7NC(=O)c7c(Cl)cccc7Cl)CC6)CC5)CC4)cc3C2=O)C(=O)N1 (stereo not drawn) | > 100 |  |  | 
7 | O=C1CCC(N2C(=O)c3ccc(N4CCC(C(=O)N5CCC(N6CCC(NC(=O)c7n[nH]cc7NC(=O)c7c(Cl)cccc7Cl)CC6)CC5)CC4)cc3C2=O)C(=O)N1 (stereo not drawn) | > 100 |  |  | 
8 | O=C1CCC(N2C(=O)c3ccc(N4CCC(CN5CCC(CCN6CCC(NC(=O)c7n[nH]cc7NC(=O)c7c(Cl)cccc7Cl)CC6)CC5)C4)cc3C2=O)C(=O)N1 (stereo not drawn) | > 100 |  | 38.9 | 
9 | O=C1CCC(N2C(=O)c3ccc(N4CC(C(=O)N5CCC(NC(=O)c6n[nH]cc6NC(=O)c6c(Cl)cccc6Cl)CC5)C4)cc3C2=O)C(=O)N1 (stereo not drawn) | > 100 |  | 34.2 | 
10 | O=C(NC1CCNCC1)c1n[nH]cc1NC(=O)c1c(Cl)cccc1Cl [AT-7519] |  | 135 |  | 
11 | O=C1CCC(N2C(=O)c3ccc(N4CC(C(=O)N5CCC(N6CCC(NC(=O)c7n[nH]cc7NC(=O)c7c(Cl)cccc7Cl)CC6)CC5)C4)cc3C2=O)C(=O)N1 (stereo not drawn) | > 100 |  |  | 
12 | CCc1nc(C(N)=O)c(Nc2ccc(N3CCN(CCC4CCN(CC(=O)N[C@H](C(=O)N5C[C@H](O)C[C@H]5C(=O)N[C@@H](C)c5ccc(-c6scnc6C)cc5)C(C)(C)C)CC4)CC3)c(OC)c2)nc1NC1CCOCC1 |  |  |  | DC50 [9]: 7.62 nM
13 | O=C1CCC(N2C(=O)c3ccc(N4CCC(C(=O)N5CCN(Cc6ccc(NC(=O)c7n[nH]cc7Nc7ncnc8[nH]ccc78)cc6)CC5)CC4)cc3C2=O)C(=O)N1 (stereo not drawn) | > 100 |  | 47.9 | 
14 | O=C1CCC(N2C(=O)c3ccc(N4CCC(CN5CCC(N6CCC(NC(=O)c7n[nH]cc7NC(=O)c7c(Cl)cccc7Cl)CC6)CC5)C4)cc3C2=O)C(=O)N1 (stereo not drawn) | > 100 |  | 28.9 | 
15 | CN1CCN(Cc2ccc(NC(=O)c3n[nH]cc3Nc3ncnc4[nH]ccc34)cc2)CC1 |  | 89.3 |  | 
16 | O=C(CCC(=O)N1CCN(Cc2ccc(NC(=O)c3n[nH]cc3Nc3ncnc4[nH]ccc34)cc2)CC1)NCCNc1cccc2c1C(=O)N(C1CCC(=O)NC1=O)C2=O (stereo not drawn) |  |  |  | DC50 [10]: 33 nM; DC50 [11]: 62 nM
17 | O=C1CCC(N2C(=O)c3ccc(N4CCC(C(=O)N5CCC(NC(=O)c6n[nH]cc6NC(=O)c6c(Cl)cccc6Cl)CC5)CC4)cc3C2=O)C(=O)N1 (stereo not drawn) | 93.3 |  | 59.3 | 
18 | O=C1CCC(N2C(=O)c3ccc(N4CCC(CN5CCC(CCN6CCC(NC(=O)c7n[nH]cc7NC(=O)c7c(Cl)cccc7Cl)CC6)CC5)CC4)cc3C2=O)C(=O)N1 (stereo not drawn) | > 100 |  | 43.5 | 
19 | O=C1CCC(N2C(=O)c3ccc(N4CCC(CN5CCC(CN6CCC(NC(=O)c7n[nH]cc7NC(=O)c7c(Cl)cccc7Cl)CC6)CC5)C4)cc3C2=O)C(=O)N1 (stereo not drawn) | > 100 |  |  | 
20 | O=C1CCC(N2C(=O)c3ccc(N4CCC(CCN5CCC(NC(=O)c6n[nH]cc6NC(=O)c6c(Cl)cccc6Cl)CC5)CC4)cc3C2=O)C(=O)N1 (stereo not drawn) | 26.5 | 24.1 | 54.9 | 

More lines, main results first:

Row | DC50 [1] [nM] | IC50 (HL-60 [2]) [nM] | Emax [3] [%] | Compound | further results
21 | 1.17 | 44.6 | 75.8 | O=C1CCC(N2C(=O)c3ccc(N4CCC(CN5CCC(NC(=O)c6n[nH]cc6NC(=O)c6c(Cl)cccc6Cl)CC5)CC4)cc3C2=O)C(=O)N1 (stereo not drawn) | 
22 | 11.2 | 11.5 | 65.8 | O=C1CCC(N2C(=O)c3ccc(N4CC(CN5CCC(CCN6CCC(NC(=O)c7n[nH]cc7NC(=O)c7c(Cl)cccc7Cl)CC6)CC5)C4)cc3C2=O)C(=O)N1 (stereo not drawn) | 
23 | 26.1 | 17.8 | 72.8 | O=C1CCC(N2C(=O)c3ccc(N4CC(N5CCC(NC(=O)c6n[nH]cc6NC(=O)c6c(Cl)cccc6Cl)CC5)C4)cc3C2=O)C(=O)N1 (stereo not drawn) | 
24 | 7.13 | 14 | 59.1 | O=C1CCC(N2C(=O)c3ccc(N4CCC(N5CCC(NC(=O)c6n[nH]cc6NC(=O)c6c(Cl)cccc6Cl)CC5)C4)cc3C2=O)C(=O)N1 (stereo not drawn) | 
25 | 13 | 20.4 | 63.2 | O=C1CCC(N2C(=O)c3ccc(N4CC(CN5CCC(NC(=O)c6n[nH]cc6NC(=O)c6c(Cl)cccc6Cl)CC5)C4)cc3C2=O)C(=O)N1 (stereo not drawn) | 
26 | 4.71 | 40.8 | 67.3 | O=C1CCC(N2C(=O)c3ccc(N4CCC(CN5CCC(NC(=O)c6n[nH]cc6NC(=O)c6c(Cl)cccc6Cl)CC5)C4)cc3C2=O)C(=O)N1 (stereo not drawn) | 
27 | 1.23 | 13.4 | 58.8 | O=C1CCC(N2C(=O)c3ccc(N4CC(CN5CCN(Cc6ccc(NC(=O)c7n[nH]cc7Nc7ncnc8[nH]ccc78)cc6)CC5)C4)cc3C2=O)C(=O)N1 (stereo not drawn) | 
28 | 1.63 | 11.7 | 76.1 | O=C1CCC(N2C(=O)c3ccc(N4CCC(CN5CCN(Cc6ccc(NC(=O)c7n[nH]cc7Nc7ncnc8[nH]ccc78)cc6)CC5)C4)cc3C2=O)C(=O)N1 (stereo not drawn) | 
29 | 2.8 | 24.4 | 79.2 | O=C1CCC(N2C(=O)c3ccc(N4CCC(N5CCC(NC(=O)c6n[nH]cc6NC(=O)c6c(Cl)cccc6Cl)CC5)CC4)cc3C2=O)C(=O)N1 (stereo not drawn) | 
